This passage reports IC50 results from patent publication US7148228B2, “Pyrazolopyrimidines and related analogs as HSP90-inhibitors” (Conforma Therapeutics Corporation, priority 2003, dated 2006).

SMILES strings stand for the structures.

Experiment [1] concerns MCF7 breast carcinoma cells. Description: MTS assay. The following applies: Homo sapiens, concentration giving 50% viable cell number. Format: cell-based. On the procedure:
MTS assays measures the cytotoxicity of geldanamycin derivatives. MTS (3-(4,5-dimethylthiazol-2-yl)-5-(3-carboxymethoxyphenyl)-2-(4-sulfophenyl)-2H-tetrazolium is a tetrazolium dye that is converted to a formazan product by dehydrogenase enzymes of metabolically active cells (Corey, A. et al. “Use of an aqueous soluble tetrazolium/formazan assay for cell growth assays in culture,” Cancer Commun. 1991, 3, 207–212). Cells were seeded in 96 well plates at 2000 cells/well and allowed to adhere overnight in Dulbecco's modified Eagle's medium supplemented with 10% fetal bovine serum. The final culture volume was 100 μl. Viable cell number was determined by using the Celltiter 96 AQueous Non-radioactive Cell Proliferation Assay (Promega, Madison Wis.). The MTS/PMS (phenazine methosulfate) solution was mixed at a ratio of 20:1, and 20 μL was added per well to 100 μl of culture medium. After 2–4 hours, the formation of the formazan product was measured at 490 nm absorbance using a multiwell plate spectrophotometer. Background was determined by measuring the Abs 490 nm of cell culture medium and MTS-PMS in the absence of cells and was subtracted from all values. Percent viable cells was calculated as follows: % viable cells=(Abs at 490 nm treated cells/Abs at 490 nm untreated cells)×100
The effect of selected compounds of the invention on MCF7 breast carcinoma cells according to the MTS assay is summarized in Table 2. IC50 was defined as the concentration of the compound which gave rise to 50% viable cell number.
Background: Tetrazolium dyes change colour on reduction, which living cells bring about.

For experiment [2], the system named is rHSP90 in the MCF7 cell lysates. Description: Cell lysate binding assay (biotin-GM competition). The following applies: concentration for 50% inhibition of biotin-GM binding to rHSP90 in MCF7 cell lysates. On the procedure:
MCF7 breast carcinoma cell lysates were prepared by douncing in lysing buffer (20 mM HEPES, pH 7.3, 1 mM EDTA, 5 mM MgCl2, 100 mM KCl), and then incubated with or without test compound for 30 mins at 4° C., followed by incubation with biotin-GM linked to BioMag™ streptavidin magnetic beads (Qiagen) for 1 hr at 4° C. The tubes were placed on a magnetic rack, and the unbound supernatant removed. The magnetic beads were washed three times in lysis buffer and boiled for 5 mins at 95° C. in SDS-PAGE sample buffer. Samples were analyzed on SDS protein gels, and Western blots done for rHSP90. Bands in the Western Blots were quantitated using the Bio-rad Fluor-S MultiImager, and the % inhibition of binding of rHSP90 to the biotin-GM was calculated.
The IC50 reported is the concentration of test compound needed to achieve 50% inhibition of the biotin-GM binding to rHSP90 in the MCF7 cell lysates.

A further experiment deals with HER2/Neu protein. In words: HER2 degradation assay. Format: cell-based. The following applies: Homo sapiens; 50% degradation of HER2/Neu protein, MCF7 cells, 16 h incubation. On the procedure: MCF7 breast carcinoma cells (ATCC) were grown in Dulbecco's modified Eagle's medium (DMEM) containing 10% fetal bovine serum (FBS) and 10 mM HEPES, and plated in 24 well plates (50% confluent). Twenty-four hrs later (cells are 65–70% confluent), test compounds were added and incubated overnight for 16 h. […] The wells were washed with 1 mL phosphate buffered saline (PBS), and 200 μL trypsin was added to each well. After trypsinization was complete, 50 μL of FBS was added to each well. Then 200 μL cells was transferred to 96 well plates. The cells were pipetted up and down to obtain a single cell suspension. The plates were centrifuged at 2,500 rpm for 1 min using a Sorvall Legend RT™ tabletop centrifuge (Kendro Laboratory Products, Asheville, N.C.). The cells were then washed once in PBS containing 0.2% BSA and 0.2% sodium azide (BA buffer). Phycoerythrin (PE) conjugated anti HER2/Neu antibody (Becton Dickinson, #340552), or PE conjugated anti-keyhole limpet hemacyanin [KLH] (Becton Dickinson, #340761) control antibody was added at a dilution of 1:20 and 1:40 respectively (final concentration was 1 μg/mL) and the cells were pipeted up and down to form a single cell suspension, and incubated for 15 mins. The cells were washed twice with 200 μL BA buffer, and resuspended in 200 μL BA buffer, and transferred to FACSCAN tubes with an additional 250 μL BA buffer. Samples were analyzed using a FACSCalibur™ flow cytometer (Becton Dickinson, San Jose, Calif.) equipped with Argon-ion laser that emits 15 mW of 488 nm light for excitation of the PE fluorochrome. 10,000 events were collected per sample. A fluorescence histogram was generated and the mean fluorescence intensity (MFI) of each sample was determined using Cellquest software. The background was defined as the MFI generated from cells incubated with control IgG-PE, and was subtracted from each sample stained with the HER2/Neu antibody. Cells incubated with DMSO was always done as untreated controls since the compounds were resuspended in DMSO. Percent degradation of HER2 was calculated as follows: % HER2 degraded=[(MFI untreated cells−MFI treated cells)/MFI untreated cell]×100
IC50 is defined as the concentration at which there was 50% degradation of the HER2/Neu protein.

In general, IC50 refers to the point on the concentration scale where inhibition reaches its midpoint. Lower therefore signals greater potency in that assay.

For `COc1c(C)cnc(Cn2ncc3c(Cl)nc(N)nc32)c1C` [Example 7, 4-Chloro-1-(4-methoxy-3,5-dimethyl-pyridin-2-ylmethyl)-1H-pyrazolo[3,4-d]pyrimidin-6-ylamine], the figures for the IC50 (in experiment [1]; in experiment [2]; in the experiment with HER2/Neu protein) were 130 nM, 140 nM and 50 nM, respectively.

Turning to `COc1c(C)c(Cl)nc(Cn2ncc3c(Cl)nc(N)nc32)c1C` [Example 8, 4-Chloro-1-(6-chloro-4-methoxy-3,5-dimethyl-pyridin-2-ylmethyl)-1H-pyrazolo[3,4-d]pyrimidin-6-ylamine], the IC50 worked out at 500 nM in experiment [1] and 140 nM in the experiment with HER2/Neu protein.

Regarding `Cc1cnc(Cn2ncc3c(Cl)nc(N)nc32)c(C)c1Cl` [Example 9, 4-Chloro-1-(4-chloro-3,5-dimethyl-pyridin-2-ylmethyl)-1H-pyrazolo[3,4-d]pyrimidin-6-ylamine], the IC50 in experiment [1] came to 300 nM; in the experiment with HER2/Neu protein it was 90 nM.

For the compound `Cc1cnc(Cn2ncc3c(Cl)nc(N)nc32)c(C)c1Br` [Example 14, 1-(4-Bromo-3,5-dimethyl-pyridin-2-ylmethyl)-4-chloro-1H-pyrazolo[3,4-d]pyrimidin-6-ylamine], the IC50 in experiment [1] amounted to 1000 nM; in experiment [2], 110 nM; in the experiment with HER2/Neu protein, 90 nM.

The compound `Cc1c[n+]([O-])c(Cn2ncc3c(Cl)nc(N)nc32)c(C)c1Br` [Example 15, 1-(4-Bromo-3,5-dimethyl-1-oxy-pyridin-2-ylmethyl)-4-chloro-1H-pyrazolo[3,4-d]pyrimidin-6-ylamine] returned an IC50 in the experiment on HER2/Neu protein of 900 nM.

On to `COc1c(C)cnc(Cn2nc(C)c3c(Cl)nc(N)nc32)c1C` [Example 23, 4-Chloro-1-(4-methoxy-3,5-dimethyl-pyridin-2-ylmethyl)-3-methyl-1H-pyrazolo[3,4-d]pyrimidin-6-ylamine], for which the values for the IC50 (in experiment [1]; with HER2/Neu protein) were 100 nM and 40 nM, respectively.

In the case of `Cc1c[n+]([O-])c(Cn2nc(C)c3c(Cl)nc(N)nc32)c(C)c1Br` [Example 24, 1-(4-Bromo-3,5-dimethyl-1-oxy-pyridin-2-ylmethyl)-4-chloro-3-methyl-1H-pyrazolo[3,4-d]pyrimidin-6-ylamine], the concentration for half-maximal inhibition (IC50) in experiment [1] is 1000 nM; with HER2/Neu protein, 30 nM.

Turning to `Cc1c[n+]([O-])c(Cn2nc(C)c3c(Cl)nc(N)nc32)c(C)c1Cl` [Example 25, 4-Chloro-1-(4-chloro-3,5-dimethyl-1-oxy-pyridin-2-ylmethyl)-3-methyl-1H-pyrazolo[3,4-d]pyrimidin-6-ylamine], the IC50 in experiment [1] came to 300 nM; with HER2/Neu protein, 30 nM.

As to `Cc1cnc(Cn2nc(C)c3c(Cl)nc(N)nc32)c(C)c1Cl` [Example 26, 4-Chloro-1-(4-chloro-3,5-dimethyl-pyridin-2-ylmethyl)-3-methyl-1H-pyrazolo[3,4-d]pyrimidin-6-ylamine], the IC50 in experiment [2] turned out to be 90 nM; in the experiment with HER2/Neu protein, 50 nM.

As for `Cc1cnc(Cn2nc(C)c3c(Cl)nc(N)nc32)c(C)c1Br` [Example 28, 1-(4-Bromo-3,5-dimethyl-pyridin-2-ylmethyl)-4-chloro-3-methyl-1H-pyrazolo[3,4-d]pyrimidin-6-ylamine], the values for the IC50 (in experiment [1]; in the experiment with HER2/Neu protein) were 1000 nM and 40 nM, respectively.

Turning to `CCc1nn(Cc2ncc(C)c(OC)c2C)c2nc(N)nc(Cl)c12` [Example 29, 4-Chloro-3-ethyl-1-(4-methoxy-3,5-dimethyl-pyridin-2-ylmethyl)-1H-pyrazolo[3,4-d]pyrimidin-6-ylamine], the IC50 in experiment [1] worked out at 1000 nM; in experiment [2], 100 nM; with HER2/Neu protein, 850 nM.

For `CCc1nn(Cc2ncc(C)c(Cl)c2C)c2nc(N)nc(Cl)c12` [Example 30, 4-Chloro-1-(4-chloro-3,5-dimethyl-pyridin-2-ylmethyl)-3-ethyl-1H-pyrazolo[3,4-d]pyrimidin-6-ylamine], the IC50 in experiment [1] came to 1000 nM; in the experiment on HER2/Neu protein it was 110 nM.

As to `COc1c(C)cnc(Cn2nc(C(C)C)c3c(Cl)nc(N)nc32)c1C` [Example 31, 4-Chloro-3-isopropyl-1-(4-methoxy-3,5-dimethyl-pyridin-2-ylmethyl)-1H-pyrazolo[3,4-d]pyrimidin-6-ylamine], the values for the IC50 (in experiment [1]; in the experiment on HER2/Neu protein) were 300 nM and 50 nM, respectively.

As for `COc1c(C)cnc(Cn2nc(-c3ccccc3)c3c(Cl)nc(N)nc32)c1C` [Example 32, 4-Chloro-1-(4-methoxy-3,5-dimethyl-pyridin-2-ylmethyl)-3-phenyl-1H-pyrazolo[3,4-d]pyrimidin-6-ylamine], the IC50 in experiment [1] was determined as 80 nM; in the experiment with HER2/Neu protein, 40 nM.

In the case of `Cc1cnc(Cn2nc(-c3ccccc3)c3c(Cl)nc(N)nc32)c(C)c1Cl` [Example 33, 4-Chloro-1-(4-chloro-3,5-dimethyl-pyridin-2-ylmethyl)-3-phenyl-1H-pyrazolo[3,4-d]pyrimidin-6-ylamine], the figures for the IC50 (in experiment [1]; with HER2/Neu protein) were 600 nM and 160 nM, respectively.

On to `Cc1cnc(Cn2nc(-c3ccccc3)c3c(Cl)nc(N)nc32)c(C)c1Br` [Example 34, 1-(4-Bromo-3,5-dimethyl-pyridin-2-ylmethyl)-4-chloro-3-phenyl-1H-pyrazolo[3,4-d]pyrimidin-6-ylamine], for which the IC50 in experiment [1] was 1000 nM; in the experiment with HER2/Neu protein, 120 nM.

On to `Cc1c[n+]([O-])c(Cn2nc(-c3ccccc3)c3c(Cl)nc(N)nc32)c(C)c1Cl` [Example 35, 4-Chloro-1-(4-chloro-3,5-dimethyl-1-oxy-pyridin-2-ylmethyl)-3-phenyl-1H-pyrazolo[3,4-d]pyrimidin-6-ylamine], for which the 50% inhibitory concentration (IC50) was 1000 nM in experiment [1], 80 nM in experiment [2] and 20 nM in the experiment with HER2/Neu protein.
